According to ChEMBL document CHEMBL1201862, “PubChem BioAssay data set” (2004):
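Assay format: 96-well plates, 48-hour exposure. GI50 is the concentration that inhibits growth by half.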 Calls of active or inactive are those of the source. No stated cut-off is given here; in the data, active = GI50 up to about 1.1 µM and inactive = higher.

What was measured:
Experiment in all cases: NCI anticancer screen, dose series, 48 h
[1] = test system: DLD-1
[2] = test system: DMS-114
[3] = test system: DMS-273
[4] = test system: HOP-18
[5] = test system: KM-20L2
[6] = test system: LXFL 529
[7] = test system: M19-MEL
[8] = test system: RXF 631
[9] = test system: XF498

Compound | GI50 [1] | GI50 [2] | GI50 [3] | GI50 [4] | GI50 [5] | GI50 [6] | GI50 [7] | GI50 [8] | GI50 [9]
O=c1nc(NC2CCCCO2)ccn1CCO (stereo not given) | > 100 µM (inactive) | > 100 µM (inactive) | > 100 µM (inactive) | > 100 µM (inactive) | > 100 µM (inactive) | > 100 µM (inactive) | > 100 µM (inactive) | > 100 µM (inactive) | 51.4 µM (inactive)
CCOC(=O)Nc1ccc(S(=O)(=O)OC)cc1.CCOC(=O)Nc1ccc(S(=O)(=O)OC)cc1.NNC(=O)c1ccncc1 | 9.04 µM (inactive) | > 50 µM (inactive) | > 50 µM (inactive) | > 50 µM (inactive) | > 50 µM (inactive) | > 50 µM (inactive) | > 50 µM (inactive) | > 50 µM (inactive) | –
Cc1ccc([S+](c2ccccc2)c2cc(C)ccc2C)cc1.O=C(OC(C(=O)[O-])C(OC(=O)c1ccccc1)C(=O)O)c1ccccc1 (stereo not given) | 14.6 µM (inactive) | – | 1.89 µM (inactive) | 12.3 µM (inactive) | 7.73 µM (inactive) | – | 5.41 µM (inactive) | – | 3.75 µM (inactive)
c1ccc2c3c([nH]c2c1)C1C2CCCCN2C(c2ccncc2)N1CC3 (stereo not given) | – | 27.2 µM (inactive) | 28.6 µM (inactive) | – | 24 µM (inactive) | 38.1 µM (inactive) | 37.2 µM (inactive) | – | 23.6 µM (inactive)
O=C(c1ccc(Cl)cc1)N(C(=S)N1CCN(c2ccccc2)CC1)C1CCCCC1 | > 100 µM (inactive) | 70 µM (inactive) | 46.9 µM (inactive) | > 100 µM (inactive) | > 100 µM (inactive) | > 100 µM (inactive) | > 100 µM (inactive) | – | –
CC1(C(=O)Nc2ccc3cc4ccccc4cc3c2)CC2(C)CC(C)(C1)C(O)NC2=O (stereo not given) | 32.9 µM (inactive) | 92 µM (inactive) | > 100 µM (inactive) | 93.5 µM (inactive) | 85.3 µM (inactive) | > 100 µM (inactive) | > 100 µM (inactive) | – | > 100 µM (inactive)
CC1=NN(c2ccccc2)C(=O)C1/N=N/c1ccc(Br)cc1C (stereo not given) | > 100 µM (inactive) | > 100 µM (inactive) | > 100 µM (inactive) | 3.62 µM (inactive) | 0.634 µM (active) | > 100 µM (inactive) | > 100 µM (inactive) | 32.4 µM (inactive) | –
N#Cc1ccccc1NC(=O)/C(=N\Nc1ccc([N+](=O)[O-])cc1)C1C(=O)NC(=O)NC1=O | > 100 µM (inactive) | > 100 µM (inactive) | – | – | > 100 µM (inactive) | > 100 µM (inactive) | > 100 µM (inactive) | – | –
COc1ccc(/C=C(\C(C)=O)C(=O)Nc2ccccc2)cc1 | > 100 µM (inactive) | > 100 µM (inactive) | – | > 100 µM (inactive) | – | > 100 µM (inactive) | > 100 µM (inactive) | – | –
C=C(CN(C)C)C(=O)c1ccccc1C | 20.9 µM (inactive) | 21.2 µM (inactive) | 24.5 µM (inactive) | 22.9 µM (inactive) | > 67.1 µM (inactive) | 15.7 µM (inactive) | 23.4 µM (inactive) | > 100 µM (inactive) | > 50.9 µM (inactive)
COC(=O)c1ccccc1N(C(=O)c1ccccc1)c1ccccc1C | 43 µM (inactive) | 38.6 µM (inactive) | 47.1 µM (inactive) | 41.2 µM (inactive) | 73.8 µM (inactive) | 85.5 µM (inactive) | 48.2 µM (inactive) | – | 22.7 µM (inactive)
O=C(C(=O)n1ncc(Cl)c(Cl)c1=O)n1ncc(Cl)c(Cl)c1=O | 16 µM (inactive) | 27.4 µM (inactive) | 17.9 µM (inactive) | 31.8 µM (inactive) | 29.6 µM (inactive) | 14.6 µM (inactive) | 20.4 µM (inactive) | 38 µM (inactive) | 26.2 µM (inactive)
COc1ccc(C/C(=N/O)C(=O)NCCc2cc(Br)c(OCCCN(C)C)c(Br)c2)cc1Br [APLYSAMINE 2] | 7.8 µM (inactive) | 18.5 µM (inactive) | 0.791 µM (active) | 0.0528 µM (active) | 18.5 µM (inactive) | 16.1 µM (inactive) | 18.2 µM (inactive) | – | 12.9 µM (inactive)
CCN(CC)c1ccc(/N=N/c2ccc(-c3nc4ccc[n+](C)c4o3)cc2)cc1 | 7.33 µM (inactive) | 3.7 µM (inactive) | 10.5 µM (inactive) | 23.7 µM (inactive) | 13 µM (inactive) | 3.81 µM (inactive) | 4.98 µM (inactive) | 12.7 µM (inactive) | 11.3 µM (inactive)
CN(C)c1ccc(C2CC(=O)C(C#N)=C(c3ccccc3)NN2C)cc1 (stereo not given) | 5.25 µM (inactive) | 30.3 µM (inactive) | – | 96.6 µM (inactive) | – | 8.28 µM (inactive) | – | 44.7 µM (inactive) | 4.55 µM (inactive)
O=C1N[C@H]2[C@H](O)[C@H](O)[C@@H](O)[C@H](O)[C@@H]2c2cc3c(c(O)c21)OCO3 [PANCRATISTATIN] | 0.0415 µM (active) | 0.0412 µM (active) | 0.0826 µM (active) | 0.0598 µM (active) | 0.0445 µM (active) | 0.541 µM (active) | 0.0388 µM (active) | 0.649 µM (active) | 0.0237 µM (active)
CC(C)c1ccc(O)c(Cc2cc(C(C)C)cc(Cc3cc(C(C)C)ccc3O)c2O)c1 | 2.01 µM (inactive) | 1.61 µM (inactive) | – | – | 2.07 µM (inactive) | 1.49 µM (inactive) | 1.61 µM (inactive) | – | 1.41 µM (inactive)
COc1ccccc1/C=C1\CCC(CCN(C)C)(C2=CCCC2)C1=O (stereo not given) | 16.8 µM (inactive) | 17.3 µM (inactive) | 17.5 µM (inactive) | 26.5 µM (inactive) | 1.7 µM (inactive) | 16.1 µM (inactive) | 17.9 µM (inactive) | 13.9 µM (inactive) | 16.5 µM (inactive)
CCN(CC)CC(O)CNc1ccc(NCC2CO2)c2c1C(=O)c1ccccc1C2=O (stereo not given) | 1.9 µM (inactive) | 1.04 µM (active) | 0.242 µM (active) | 16.6 µM (inactive) | 0.692 µM (active) | 0.0486 µM (active) | 0.125 µM (active) | 0.272 µM (active) | –
CCCCCCCCC/C=C1\CCC(CN2CCOCC2)C1=O (stereo not given) | 1.96 µM (inactive) | 2.92 µM (inactive) | 2.32 µM (inactive) | 1.54 µM (inactive) | 7.35 µM (inactive) | 1.6 µM (inactive) | 3.28 µM (inactive) | 5.62 µM (inactive) | –
Cc1cc2c(cc1C)[n+]([O-])c(C(=O)CC(=O)C(=O)Nc1ccccc1C(C)C)c(C)[n+]2[O-] | – | > 100 µM (inactive) | > 100 µM (inactive) | – | > 100 µM (inactive) | > 100 µM (inactive) | > 100 µM (inactive) | > 100 µM (inactive) | > 100 µM (inactive)
COc1ccc(NC(=O)C(=O)c2c(O)c3ccc(O)cc3oc2=O)c([N+](=O)[O-])c1 | > 100 µM (inactive) | > 100 µM (inactive) | > 100 µM (inactive) | – | > 100 µM (inactive) | > 100 µM (inactive) | > 100 µM (inactive) | > 100 µM (inactive) | –
OC(C1CO1)C(O)C1CO1 (stereo not given) | > 150 µM (inactive) | 35.6 µM (inactive) | 8.81 µM (inactive) | 145 µM (inactive) | 140 µM (inactive) | – | 74.8 µM (inactive) | – | 37.2 µM (inactive)
O=c1c2cc(Cl)ccc2sc2cccc(Cl)c12 | – | – | > 100 µM (inactive) | – | > 100 µM (inactive) | > 100 µM (inactive) | > 100 µM (inactive) | > 100 µM (inactive) | –
O=C(N/C=C1\C(=O)Oc2ccccc2C1=O)Nc1ccccc1 | 42.6 µM (inactive) | 44.9 µM (inactive) | > 100 µM (inactive) | 27.5 µM (inactive) | > 100 µM (inactive) | 81.1 µM (inactive) | 55.8 µM (inactive) | – | 74.3 µM (inactive)
